Laboratory results taken from patent publication EP0792649A1, “Treatment of sleep disorders” (ELI LILLY AND COMPANY, priority 1996, dated 1997).

Experiments:
Assay type in all cases: in vivo, Sprague-Dawley rats
DA = test: Microdialysis assays of monoamines: DA level in hypothalamus dialysate of conscious rats
Description: (§1) The tests were carried out as follows.
(§2) Sprague-Dawley rats (Harlan or Charles River) weighing 270-300 grams were surgically implanted with microdialysis probes under chloral hydrate/pentobarbital anesthesia (170 and 36 mg/kg i.p. in 30% propylene glycol, 14% ethanol) (Perry and Fuller, Effect of fluoxetine on serotonin and dopamine concentration in rat hypothalamus after administration of fluoxetine plus L-5-hydroxytryptophan, Life Sci., 50, 1683-90 (1992)). A David Kopf stereotaxic instrument was used to implant the probe unilaterally in the hypothalamus at coordinates rostral -1.5 mm, lateral -1.3 mm, and ventral -9.0 mm (Paxinos and Watson, 1986). After a 48 hour recovery period, rats were placed in a large plastic bowl with a mounted liquid swivel system (CMA/120 system for freely moving animals, Bioanalytical Systems, West Lafayette, IN). Filtered artificial cerebrospinal fluid (CSF) (150 mM NaCl, 3.0 mM KCl, 1.7 mM CaCl2, and 0.9 mM MgCl2) was perfused through the probe at a rate of 1.0 µl/min. The output dialysate line was fitted to a tenport HPLC valve with a 20 µl loop. At the end of each 30 minute sampling period, dialysate collected in the loop was injected on an analytical column (Spherisorb 3 µ ODS2, 2X150 mm, Keystone Scientific).
(§3) The method used to measure monoamines was as described by Perry and Fuller (1993). Briefly, dialysate collected in the 20 µl loop was assayed for 5-HT, NE and DA. The 20 µl injection went onto the column with a mobile phase which resolved NE, DA, and 5-HT: 75 mM potassium acetate, 0.5 mM ethylenediaminetetraacetic acid, 1.4 mM sodium octanesulfonic acid and 8% methanol, pH 4.9. The mobile phase for the amine column was delivered with a flow programmable pump at an initial flow rate of 0.2 ml/min increasing to 0.3 ml/min at 5 min then decreasing back to 0.2 ml/min at 26 min with a total run time of 30 min. Flow programming was used to elute the 5-HT within a 25 min time period. The electrochemical detector (EG&G, Model 400) for the amine column was set at a potential of 400 mV and a sensitivity of 0.2 nA/V. The data was collected and analyzed with a Hewlett-Packard HP1000 chromatography system which measured peak heights and calculated sample concentrations. Basal levels were measured for at least 90 minutes prior to drug administration.
(§4) Extracellular levels of the amines in microdialysates were calculated by comparing peak heights with those of 50 pmole standards. The mean value of the four samples immediately preceding drug administration served as the basal level for each experiment and data was converted to percent of basal. Paired t-tests were used to compare the mean of the basal values from the time point immediately preceding drug administration to those of each time point thereafter.
(§5) The rats were prepared as described above, and the indole was administered subcutaneously at 3 mg/kg 100 minutes after the start of the experiment. Fluoxetine was administered intraperitoneally at 10 mg/kg, together with a second dose of the indole at 3 mg/kg, 210 minutes after the start of the experiment. Each data point reported here represents a single animal.
(§6) The results are shown below as percent of baseline of the three monoamines, at various times after the start of the experiment. Each data point represents the average of three or more animals.
(§7) This test was carried out as described in Test 1, using 4-(2-hydroxy-3-cyclohexylaminopropoxy)indole, maleate, at 3 mg/kg administered at 120 minutes, and (+)-duloxetine, hydrochloride, at 4 mg/kg administered with a second dose of the indole at 3 mg/kg, at 270 minutes. Results are reported as in Test 2 above. The 5-HT results are the average of three animals, and the other results are the average of four animals.

NE = test: Microdialysis assays of monoamines: NE level in hypothalamus dialysate of conscious rats
Description: as §1, §2, §3, §4, §5, §6, §7

5-HT = test: Microdialysis assays of monoamines: 5-HT level in hypothalamus dialysate of conscious rats; details: for 5-HT level measured in the dialysate, % of baseline: Test 1, single animal; for 5-HT, percent of baseline: Test 3, average of three animals
Description: as §1, §2, §3, §4, §5, §6, §7

[1] = Test 2, 120 min (time of first (-)-pindolol dose, 5 mg/kg), average of three or more animals
[2] = Test 2, 150 min, (-)-pindolol 5 mg/kg at 120 min, average of three or more animals
[3] = Test 2, 180 min, (-)-pindolol 5 mg/kg at 120 min, average of three or more animals
[4] = Test 2, 210 min, (-)-pindolol 5 mg/kg at 120 min, average of three or more animals
[5] = Test 3, 120 min (time of first indole dose, 3 mg/kg), average of four animals
[6] = Test 3, 150 min, the indole 3 mg/kg at 120 min, average of four animals
[7] = Test 3, 180 min, the indole 3 mg/kg at 120 min, average of four animals
[8] = Test 3, 210 min, the indole 3 mg/kg at 120 min, average of four animals
[9] = Test 3, 240 min, the indole 3 mg/kg at 120 min, average of four animals
[10] = Test 3, 270 min, the indole 3 mg/kg at 120 min, average of four animals

CC(C)NCC(O)COc1cccc2[nH]ccc12 (single isomer, unassigned; (-)) [(-)-pindolol, 4-(2-hydroxy-3-isopropylaminopropoxy)-indole]
DA, percent of baseline (DA; [1]): 90%
DA, percent of baseline (DA; [2]): 90%
DA, percent of baseline (DA; [3]): 70%
DA, percent of baseline (DA; [4]): 100%
NE, percent of baseline (NE; [1]): 90%
NE, percent of baseline (NE; [2]): 100%
NE, percent of baseline (NE; [3]): 120%
NE, percent of baseline (NE; [4]): 110%

O=C(O)/C=C\C(=O)O.OC(CNC1CCCCC1)COc1cccc2[nH]ccc12 (centres unmarked) [4-(2-hydroxy-3-cyclohexylaminopropoxy)indole, maleate]
DA level, % of baseline (DA; Test 1, 120 min, the indole 3 mg/kg s.c. at 100 min, single animal): about 210%
DA level, relative to baseline (DA; Test 1, 210 min, the indole 3 mg/kg s.c. at 100 min, single animal): near baseline
DA, percent of baseline (DA; [5]): 70%
DA, percent of baseline (DA; [6]): 150%
DA, percent of baseline (DA; [7]): 130%
DA, percent of baseline (DA; [8]): 110%
DA, percent of baseline (DA; [9]): 100%
DA, percent of baseline (DA; [10]): 110%
NE level, relative to baseline (NE; Test 1, by 210 min, the indole 3 mg/kg s.c. at 100 min, single animal): nearly to baseline
NE level, % of baseline (NE; Test 1, highest level after the indole 3 mg/kg s.c. at 100 min, single animal): about 180%
NE, percent of baseline (NE; [5]): 100%
NE, percent of baseline (NE; [6]): 160%
NE, percent of baseline (NE; [7]): 140%
NE, percent of baseline (NE; [8]): 140%
NE, percent of baseline (NE; [9]): 130%
NE, percent of baseline (NE; [10]): 150%
5-HT level measured in the dialysate, % of baseline (5-HT; 210 min after start, the indole 3 mg/kg s.c. at 100 min): about 80%
5-HT level measured in the dialysate, % of baseline (5-HT; lowest level after the indole 3 mg/kg s.c. at 100 min): about 50%
5-HT, percent of baseline (5-HT; 120 min (time of first indole dose, 3 mg/kg)): 90%
5-HT, percent of baseline (5-HT; 150 min, the indole 3 mg/kg at 120 min): 130%
5-HT, percent of baseline (5-HT; 180 min, the indole 3 mg/kg at 120 min): 130%
5-HT, percent of baseline (5-HT; 210 min, the indole 3 mg/kg at 120 min): 80%
5-HT, percent of baseline (5-HT; 240 min, the indole 3 mg/kg at 120 min): 90%
5-HT, percent of baseline (5-HT; 270 min, the indole 3 mg/kg at 120 min): 80%
